Measurements reported in patent publication US20070037873A1, “Airway remodeling treatments” (priority 2005, published 2007).

Assays:
[1] = tested on: Human airway smooth muscle (ASM) cells; assay: Human ASM cell proliferation (MTT) after TNF-α stimulation; assay type: cell-based; conditions: ajulemic acid 0-30 μmoles, 60 minutes, then 1 ng/ml TNF-α for 48 hours, FIG. 1
Method: Human airway smooth muscle (ASM) (also known as human bronchial smooth muscle (HBSM)) cells were obtained cryopreserved from Cambrex Bio Science (Walkersville, Md.) at passage 3. See, Ethier and Madison, Cell Calcium, 32:31-38 (2002) and Zhong et al., Am. J Respir Cell Mol. Biol., 30:118-125 (2004). Cultures were characterized as smooth muscle cells by positive immunostaining for smooth muscle actin and negative for Factor VIII. Cells were seeded and grown in smooth muscle basal medium (SMBM, Cambrex Bio Science) supplemented with 5% fetal bovine serum, 5 μg/ml insulin, 0.5 ng/ml epidermal growth factor, 2 ng/ml fibroblast growth factor, gentamicin, and amphotericin. Cells were maintained at 37° C. in a humidified atmosphere (5% CO2), fed every 48 hours, and passaged when confluent. Shortly after passaging, ajulemic acid (synthesized by Organix, Inc., Woburn, Mass.) was added to growth media to a concentration of 0-30 μmoles. Cells were incubated for 60 minutes, and then stimulated with 1 ng/ml TNF-α for 48 hours. After 48 hours, cell proliferation was evaluated using the Cell Proliferation Kit I (MTT) from Roche Diagnostics (Indianapolis, Ind.), which provides a measure of cell number as a function of optical density.

[2] = tested on: NF-KB; assay: EMSA of NF-KB binding in nuclear extracts of FLS cells; assay type: cell-based, human; conditions: 10 μM ajulemic acid for 1 hour
Description: Human fibroblast-like synovial (FLS) cells were isolated from synovial tissue or synovial fluid of patients with inflammatory arthritis (4 RA, 1 psoriatic arthritis) essentially as described (Stebulis et al., J. Rheumatol. 32:301-06, 2005). Briefly, synovial tissue obtained at the time of joint replacement surgery was minced and plated in tissue culture dishes with growth medium (MEM with 15% FBS, 1% penicillin/streptomycin solution, 1% nonessential amino acids). Synovial fluid was collected in heparinized syringes, then centrifuged at 1200 rpm for 15 min. The cell pellet was resuspended in growth medium, then plated in tissue culture flasks. After 2-4 days, primary cultures were washed with PBS to remove tissue fragments and nonadherent cells. FLS were incubated at 37° C. under 5% CO2 and passaged to 6-well tissue culture plates (split 1:3) when they reached confluence. Passages 2 through 8 were used for experiments.
Experiments were done on FLS rested overnight in low serum medium (MEM/2% FBS). Medium was replaced before beginning the experiments. Cells were treated with 10 μM ajulemic acid for 1 hour then stimulated with 1 ng/ml TNF-α or left unstimulated. Controls were vehicle (0.3% DMSO) treated cells. […] Gels were scanned and analyzed using ADOBE® software for PC.

[3] = tested on: IK-B; assay: Western blot of IK-B phosphorylation in TNF-α stimulated FLS cells; assay type: cell-based, human; conditions: FIG. 3
Method: FLS cells were collected from human synovial fluid in heparinized syringes, then centrifuged at 1200 rpm (260 g) for 15 minutes. FLS cells are used herein as models of pulmonary fibroblasts and/or myofibroblasts. The resulting cell pellet was resuspended in 7 ml of growth medium (Dulbecco's Minimal Essential Medium with 15% heat-inactivated fetal bovine serum (FBS), 1% nonessential amino acids, 1% penicillin/streptomycin solution) and plated in 25 ml tissue culture flasks. Cultures were incubated at 37° C., under 5% CO2 for 24 to 48 hours after which medium was aspirated and cultures were washed with PBS to remove nonadherent cells. Growth medium was replaced every 3 to 4 days. After 10 to 14 days, adherent cells were harvested by trypsinization, washed, and transferred to 6-well tissue culture plates in fresh growth medium. FLS cells were passaged (split 1:3) at confluence, generally every 10 to 14 days.
FLS cells at passage 2 through 6 were (i) untreated, (ii) treated with 1-30 μM of ajulemic acid in growth media, (iii) treated with 1 ng/ml of TNF-α in growth media, or (iv) treated with a combination of 1-30 μM of ajulemic acid and 1 ng/ml TNF-α for 10 minutes or 45 minutes. Cells were harvested and washed several times with PBS. Whole cell lysates were prepared in hypotonic HEPES buffer (7.45 g KCl/100 ml H2O; 3.80 g EGTA/100 ml H2O;0.87 g PMSF/500 ml H2O; 1.54 g DTT/10 ml H2O). […]

[4] = tested on: MMP-1; assay: MMP-1 mRNA Northern blot in stimulated FLS cells; assay type: cell-based, human; conditions: FLS treated 60 minutes with AjA, then 10 ng/mL TNFα+1 ng/mL GMCSE for 4 hours; FIG. 4
Method: Human fibroblast-like synovial cells (FLS) were obtained from synovial tissue or synovial fluid, and grown to confluence in 6 well tissue culture plates. Cells were treated or not for 60 minutes with AjA, then stimulated with 10 ng/mL TNFα+1 ng/mL GMCSE for 4 hours. MMP-1 mRNA content measured by Northern blot analysis.
Cells were harvested and resuspended in TRIZOL® solution (GIBCO-BRL) to extract total cellular RNA. The RNA was resuspended in diethylpyrocarbonate (DEPC)-treated water. Total RNA (15 μg) was separated by electrophoresis in 1% agarose/17.6% formaldehyde gels. The RNA was transferred overnight from the denaturing gel onto Hybond-N^+ (Amersham Pharmacia Biotech Inc., Piscataway, N.J.) by capillary action using […] buffer ([…]). The RNA was cross-linked to the filter by ultraviolet irradiation for 20 seconds using a UV Crosslinker (Spectronics Corporation, Westbury, N.Y.) and the blots were hybridized with a solution of 5×SSC, 5× Denhardt's solution, 0.5% SDS, and 10 mg/ml sonicated salmon sperm DNA for 5 hours at 65° C., and 10^7 cpm/ml radio-labeled cDNA generated by random priming with ^32P-dCTP ([…], NEN, Boston, Mass.). Probes specific for the MMP-1 gene were heat denatured and added to the prehybridization buffer for hybridization overnight at 65° C. […]

[5] = tested on: human ASM cells; assay: Fura-2 calcium transients in agonist-stimulated ASM cells; assay type: cell-based; conditions: ajulemic acid 10 μM or 20 μM for 10 minutes, F340/F380 ratio, p<0.01 versus control
Method: Human airway smooth muscle (ASM) cells were obtained and passaged as described in Example 1. Subconfluent ASM cells in 96-well plates were washed 3 times in a modified Kreb-Ringer-Henseleit solution (KRH) containing 115 mM NaCl, 5 mM KCl, 1 mM KH2PO4, 1 mM MgSO4, 25 mM N-2-hydroxyethylpiperazine-N′-2-ethanesulfonic acid (HEPES), 15 mM glucose and 2 mM CaCl2. Cells were incubated in 1.0 μM fura 2-AM and pluronic F-127 (0.004%) for 60 minutes at room temperature. See, e.g., Wang et al., Am. J. Phys.; 272:C1151-C1159, 1997. After washing 3 times with KRH, cells were covered with 200 μl KRH and placed on the microscope stage. Reagents were added directly to the wells during calcium recordings. Fura 2-AM and F-127 were from Molecular Probes, Inc. (Eugene, Oreg.). Other chemicals were from Sigma (St. Louis, Mo.).
Fluorescence was induced using computer-controlled 337 and 380 nm UV light generated by a nitrogen laser and a nitrogen laser-pumped dye laser, respectively (Laser Science, Franklin, Mass.). See, e.g., Ethier et al., Cell Calcium, 32:31-38 2002. […]
Background from a cell free region of the cover glass was subtracted prior to data acquisition and then an 11×11 pixels area was selected over each cell. […] Fluorescence emissions stimulated by alternating pulses of ˜340 and 380 nm light were recorded and their ratios plotted. […]

CCCCCCC(C)(C)c1cc(O)c2c(c1)OC(C)(C)[C@@H]1CC=C(C(=O)O)C[C@@H]21 [ajulemic acid, 1′,1′dimethylheptyl-Δ8-THC-11-oic acid]
human ASM cell proliferation [1]: suppressed human ASM cell proliferation in a dose-dependent manner
reduction of TNF-α induced NF-KB activation (binding to oligonucleotide corresponding to an NF-KB binding site) ([2]; then 1 ng/ml TNF-α, extracts 45 minutes after stimulation, lane 4 vs. lane 3): approximately 75%
nuclear binding of NF-KB in resting FLS ([2]; unstimulated FLS, EMSA, lane 2 vs. lane 1): not altered
expression of the non-phosphorylated form of IK-B ([3]; 1-30 μM ajulemic acid with 1 ng/ml TNF-α, after 45 minutes): dramatically increased expression of the non-phosphorylated form of IK-B
phosphorylation of IK-B (phosphor-IK-B) ([3]; 1-30 μM ajulemic acid, 10 minutes after stimulation with 1 ng/ml TNF-α): prevented phosphorylation of IK-B
MMP-1 expression (mRNA, Northern blot) [4]: downregulates MMP-1 expression in a dose-dependent manner
calcium transients, histamine stimulated ([5]; histamine): suppressed calcium transients
calcium transients, thrombin stimulated ([5]; thrombin): suppressed calcium transients
